Measurements reported in US20100003711A1, “Methods to identify therapeutic agents” (THE SCRIPPS RESEARCH INSTITUTE, priority 2005, published 2010).

Experiments:
[1] = Aldolization of secoketoaldehyde 4a with atherosclerotic artery and blood fractions (1H NMR); type: in vitro ADME, human; conditions: in the presence of lyophilized PBS
Description: Aldolization of secoketoaldehyde 4a with atherosclerotic artery and bloodfractions. […] To this solution was added either a) atherosclerotic artery (2.1 mg) that had been homogenized in PBS (1 ml) in a tissue homogenizer and then lyophilized to dryness, b) lyophilized human blood (1 ml), c) lyophilized human plasma (1 ml) or d) PBS lyophilized (1 ml). At time points samples were removed and analyzed by ^1H NMR vide supra.

[2] = system: Class A scavenger receptor (SR-A); assay: Scavenger receptor expression by flow cytometry, SR-A; type: cell-based, murine; conditions: cultured macrophages, compound in the absence of LDL
Description: Cell surface CD36 and SR-A were measured by flow cytometry using CD36 (BD Biosciences Pharmingen, San Diego, Calif.) and CD204 (Serotec, Oxford, UK) specific monoclonal antibodies. See Liao et al. (2000) Arterioscler. Thromb. Vasc. Biol. 20: 1968-75; Hu et al. (1996) Blood 87: 2020-28. Murine macrophage J774A.1 cells were serum-starved overnight in media with 0.5% BSA. Cells (1×10^6) treated with cholesterol ozonation products or cholesterol ozonation product complexed with LDL for specified times were then washed twice with PBS. […] Expression of either CD36 or SR-A was determined with CD36 (BD Biosciences Pharmingen, San Diego, Calif.) and CD204 (Serotec, Oxford, U.K.) specific monoclonal antibodies, respectively. After washing off the primary antibody, secondary antibodies were added, cells were washed again, then analyzed on a FACS calibur 2 (Becton Dickinson, Sparks, Md.) flow cytometer and analyzed by CellQuant software. Results were expressed as mean fluorescence intensity±standard error of the mean (SEM) of at least duplicate determinations. Significance was determined using a student two-tail t test, with (*) indicating p<0.05, and (**) indicating p<0.01 versus the control.

neuronal cell lines = assay: Cytotoxicity towards neuronal cell lines (similar procedures); type: cell-based
E-selectin (CD62E) = assay: Endothelial adhesion molecule expression by ELISA, E-selectin; type: cell-based, human
Description: Endothelial cell surface adhesion molecule expression was measured by ELISA, using anti-human CD54 (ICAM-1), CD106 (VCAM-1) and CD62E (E-Selectin) antibodies (Leinco Technologies, Inc., St. Louis, Mo.). The ELISA method was modified from previously described procedures.
Cells were then incubated with antibodies to VCAM-1, E-selectin, or ICAM-1 diluted 1:400 in PBS containing 5% FCS at 37° C. for 30 min. Wells were washed two times with PBS, then incubated with horseradish peroxidase (HRP)-conjugated goat anti-mouse IgG (Southern Biotechnology Associates, Birmingham, Ala., USA) in PBS/5% FCS at 37° C. for 30 min. The wells were washed four times with PBS, then incubated with H2O2/3,3′,5,5′-tetramethyl-benzidine peroxidase substrate (Pierce Chemical, Rockford, Ill., USA) for 30 min in the dark. The reaction was stopped by adding 25 μl of 8 N H2SO4, and the plates read on a microplate reader, blanking on wells stained with only secondary antibody. Each assay was performed in triplicate and the data are reported as the mean±SEM as a percentage of the expression level of the vehicle. To study the effect of cholesterol ozonation product 5a concentration (5-50 μM) on E-selectin expression, the assay was performed in an identical fashion as described above, with each point being the mean±SEM of at least duplicate measurements.

J774.1 macrophages = assay: Lipid-loading assay (foam cell formation); type: cell-based, murine; conditions: LDL 100 μg/mL with 4a or 5a (20 μM), 72 h, unactivated J774.1 macrophages
Description: Lipid-loading assay (foam cell formation). J774.1 macrophages were incubated in ATCC-recommended media containing 10% fetal bovine serum under a controlled atmosphere of 5 or 7% CO2 at 37° C., in 8-well chamber slides. […] At termination, cells were washed twice with PBS (pH 7.4). The cells were then fixed with 6% (v/v) paraformaldehyde in PBS for 30 minutes, rinsed with propylene glycol for 2 minutes and lipids were stained with 5 mg/ml Oil Red 0 for 8 minutes. The cells were counterstained with Harris' hematoxylin for 45 seconds, and background staining was removed with 6% paraformaldehyde followed by washing once in PBS and once in tap water. Cover slips were mounted onto the glass slides using glycerol and the slide preparations were examined by light microscopy. The number of lipid-laden cells was scored out of a total of at least 100 cells counted in a single field in each slide, and expressed as a percentage of total cells. Photographs were taken at 100× magnification.

SMILES: CC(C)CCC[C@@H](C)[C@H]1CCC2C(CC=O)C([C@@]3(C)CC[C@H](O)CC3=O)CC[C@@]21C (stereo partly shown) [4a, 3βHydroxy-5-oxo-5,6-secocholestan-6-al]
- aldolization of 4a [1]: no aldolization
- SR-A expression [2]: did not increase expression of either receptor
- cytotoxicity towards neuronal cell lines (neuronal cell lines): cytotoxic
- induction of E-selectin levels (E-selectin (CD62E); HAAE-1, 1.25 μM complexed with LDL (100 μg/mL protein)): 2 fold
- induction of E-selectin levels (E-selectin (CD62E); HAAE-1, 50 μM complexed with LDL (100 μg/mL protein)): about 8 fold
- selectin (E-selectin) expression (E-selectin (CD62E); HAAE-1, not complexed with LDL): no effects
- lipid-loading of macrophages / foam cell formation (J774.1 macrophages): began lipid-loading and foam cells began to appear
